Experimental data taken from patent US11389415B2, “Methods of regulating cannabinoid receptor activity-related disorders and diseases” (The United States of America as represented by the …, priority 2012, dated 2022).

Legend:
HepG2 cells = experiment: [3H]-Thymidine incorporation assay in HepG2 cells; type: cell-based, human
Procedure: Maintenance and Treatment of Cell Lines. Human HepG2 hepatocarcinoma cells and human U87MG glioma cells (ATCC, Manassas, Va.) were maintained in EMEM medium supplemented with 1% L-glutamine, 1% sodium pyruvate, 1% penicillin/streptomycin, and 10% FBS (Hyclone, Logan, Utah). The human 1321N1 astrocytoma cells (European Collection of Cell Cultures, Sigma-Aldrich) were cultured in Dulbecco's modified Eagle's medium supplemented with 10% FBS and penicillin/streptomycin. All cell lines were cultured at 37° C. in 5% CO2, and the medium was replaced every 2-3 days.
Cells were seeded in 12-well plates at approximately 50,000 cells/well and incubated at 37° C. After 24 hours, the wells were rinsed with PBS and replaced with serum-free medium containing the appropriate concentration of the test compounds. After another 24-hour incubation at 37° C., 1 μCi of [^3H]-thymidine was added to each well and incubated at 37° C. for 16 hours. [^3H]-Thymidine incorporation into DNA was monitored after the cells were washed twice with PBS and then lysed in 600 μL of 0.1N NaOH for 30 minutes with shaking. The lysate was then mixed with 3 mL of liquid scintillation cocktail (Beckman Coulter, Inc., Brea, Calif.), and radioactivity was measured by liquid scintillation counting using Beckman Coulter LS6000IC Scintillation Counter. Data are shown as CPM incorporated compared to the control cells.

1321N1 cells = conditions: previously reported; read-out: Mitogenesis Inhibition in 1321N1 cells (IC50 nM)* (converted); cited from earlier work
ERK1/2 = ERK1/2 phosphorylation (GPR55 downstream signaling) in HepG2 cells; type: cell-based, human; conditions: HepG2, 2.5 and 10 μM, 10 minutes
Procedure: (§1) Western blot analysis. For detection of intracellular signaling proteins, cells were lysed in radioimmunoprecipitation buffer containing EGTA and EDTA (Boston BioProducts, Ashland, Mass.). The lysis buffer contained a protease inhibitor cocktail (Sigma-Aldrich) and phosphatase inhibitor cocktail (Calbiochem, San Diego, Calif.). Equivalent amount of proteins (14 and 54 μg/well for PANC-1 and HepG2 cells, respectively) were separated on 4 to 12% precast gels (Invitrogen, Carlsbad, Calif.) using SDS-polyacrylamide gel electrophoresis under reducing conditions and then electrophoretically transferred onto polyvinylidene fluoride membrane (Invitrogen). Western blots were performed according to standard methods, which involved blocking in 5% non-fat milk and incubated with the antibody of interest, followed by incubation with a secondary antibody conjugated with the enzyme horseradish perodixase. The detection of immunoreactive bands was performed by chemiluminescence using the ECL Plus Western Blotting Detection System (GE Healthcare, Piscataway, N.J.). The quantification of bands was done by volume densitometry by using ImageJ software. The rabbit polyclonal antibodies against EGFR were obtained from Cell Signaling Technology, Inc. (Beverly, Mass.) and the monoclonal anti-Hsp90 was purchased from Santa Cruz Biotechnology, Inc. (Santa Cruz, Calif.).
Effect of MNF on O-1602-mediated increase in cell signaling. Serum-starved cells were pretreated in the absence or presence of 1 μM MNF for 10 minutes followed by a 10 minute incubation with 0, 2.5 and 10 μM O-1602 or 10% FBS, after which the levels of total ERK2 and phosphorylated forms of ERK1/2 (pErk1/2, Thr202/Tyr204), were determined by Western blotting technique. All primary antibodies were purchased from Cell Signaling Technology and used at a dilution recommended by the manufacturer.

HepG2 and PANC-1 cells = experiment: Cell morphology and EGFR expression in HepG2 and PANC-1 cells; type: cell-based, human; conditions: 5 μM, 16 hours
Procedure: FIGS. 26A-26C show MNF interferes with inducible changes in cell morphology and expression of EGFR. […] White arrows show individual cells with filopodia. FIG. 26C, Cell lysates were prepared from similar studies and immunoblotted for EGFR. The membranes were reprobed for Hsp90, which served as a loading control.
as §1

GPR55 [1] = molecular target: T1, GPR55 (Homo sapiens, UniProt Q9Y2T6); experiment: GPR55 internalization assay in hGPR55-HEK293 cells; type: cell-based; conditions: HEK293 stably expressing HA-tagged GPR55, 5 μM, 20 minutes
T1 sequence (Q9Y2T6 whole entry): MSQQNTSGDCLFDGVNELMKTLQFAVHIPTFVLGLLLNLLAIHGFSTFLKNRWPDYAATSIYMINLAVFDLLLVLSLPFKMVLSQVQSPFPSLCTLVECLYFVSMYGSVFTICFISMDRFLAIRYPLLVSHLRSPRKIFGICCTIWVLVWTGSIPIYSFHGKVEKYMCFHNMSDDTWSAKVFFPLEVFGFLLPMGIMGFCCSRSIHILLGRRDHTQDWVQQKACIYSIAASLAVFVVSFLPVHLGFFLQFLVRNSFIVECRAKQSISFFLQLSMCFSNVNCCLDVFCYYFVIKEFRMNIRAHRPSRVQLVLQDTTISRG
Procedure: GPR55 internalization assay. Endocytosis of GPR55 was observed following a previously described protocol with minor modifications (Henstridge et al., Br. J. Pharmacol. 160: 604-614, 2010). Briefly, hGPR55-HEK293 cells were grown on Lab-Tek II CC2 chamber slides (Thermo Scientific Nunc, Rochester, N.Y.) for 48 hours in regular media and then were serum starved for 1 hour. A preincubation with 1:1000 rabbit HA antibody (Covance, Md.) was performed in the presence of vehicle (0.1% DMSO) or 1 μM MNF in serum-free media for 45 minutes at 37° C. in the CO2 incubator. Cells were then washed extensively with PBS and treated with 5 μM 01602 in serum-free media for 20 minutes at 37° C. in the CO2 incubator. Subsequently, cells were washed three times, fixed in fresh 3.7% paraformaldehyde in PBS (10 min), and incubated with anti-rabbit Alexa Fluor 488 antibody (Molecular Probes, Eugene, Oreg.; 1:1000, 30 minutes). Cells were washed and fixed for a second time prior to permeabilization with 0.2% Triton X-100 (5 minutes). Incubation with anti-rabbit Alexa Fluor 568 antibody (Molecular Probes; 1:1000, 30 minutes) was carried out to determine the extent of internalized GPR55-HA antibody complex. […]

GPR55 [2] = molecular target: T1, GPR55; experiment: Cellular uptake of TocriFluor T1117 in HepG2 cells; type: cell-based; design: host or cells: HepG2 hepatocarcinoma cells; conditions: HepG2, 0.25 μM, 30 minutes pretreatment

CCC(Cc1ccc(O)cc1)NCC(O)c1cc(O)cc(O)c1 [(R,R′)-ethylFen, (R,R′)-ethylfenoterol]
% Change in HepG2 cells ([3H]-thymidine incorporation) (HepG2 cells; at 10 μM): (R,R′): 50.90 at 10 μM %
IC50 (1321N1 cells): 1.44 ± 0.27 nM

C[C@@H](Cc1ccc(O)cc1)NC[C@@H](O)c1cc(O)cc(O)c1 [(S,S′)-Fen, fenoterol]
% Change in HepG2 cells ([3H]-thymidine incorporation) (HepG2 cells; 1 μM, 24 h): 9.7%
IC50 (1321N1 cells): 184 nM

C=C(C)[C@@H]1CCC(C)=C[C@H]1c1c(C)cc(O)cc1O [O-1602, reference compound]
ERK phosphorylation (ERK1/2): dose-dependently increased ERK phosphorylation
EGFR levels (HepG2 and PANC-1 cells): led to higher EGFR levels when compared to vehicle-treated cells
GPR55 internalization (GPR55 [1]): led to marked endocytosis of HA-tagged GPR55
reduction in the amount of T1117 incorporated (GPR55 [2]): 47%
delay in cellular accumulation of T1117 (GPR55 [2]; 10 nM T1117): 12.5 min
